# Measured values published in publication PMC5608353 (PLoS ONE, 2017).
# Where two headings read alike, the source gives them in different places.
# Tests used:
# C. perfringens CVCC 46 [1] = tested on: C. perfringens CVCC 46
# C. perfringens JT1 [2] = tested on: C. perfringens JT1
# C. perfringens JZ10 [3] = tested on: C. perfringens JZ10
# C. perfringens JC2 [4] = tested on: C. perfringens JC2
# [5] = tested on: human erythrocytes, epidermal keratinocytes, A549 cells, murine L929 fibroblasts, porcine intestinal epithelial cell line ZYMSIEC02; conditions: cited from earlier work
# C. perfringens CVCC 46 [6] = format: cell-based, Clostridium perfringens type A
# C. perfringens CVCC 46 [7] = conditions: for MICa (MIC of drug used alone): chequerboard, triplicate
# C. perfringens CVCC 46 [8] = assay: microbe, parasite or virus in culture; conditions: Clostridium perfringens, CVCC46, 18 h
# C. perfringens CVCC 51 [9] = assay: microbe, parasite or virus in culture; conditions: Clostridium perfringens, CVCC51, 18 h
# C. perfringens CVCC 1137 [10] = assay: microbe, parasite or virus in culture; conditions: Clostridium perfringens, CVCC1137, 18 h
# C. perfringens JT1 [11] = assay: microbe, parasite or virus in culture; conditions: Clostridium perfringens, JT1, 18 h
# C. perfringens JZ10 [12] = assay: microbe, parasite or virus in culture; conditions: Clostridium perfringens, JZ10, 18 h
# C. perfringens JC2 [13] = assay: microbe, parasite or virus in culture; conditions: Clostridium perfringens, JC2, 18 h
# C. perfringens CVCC 46 [14] = assay: microbe, parasite or virus in culture; conditions: Clostridium perfringens, CVCC46, read-out: MICa (MIC of drug used alone)
# C. perfringens CVCC 51 [15] = conditions: CVCC 51; broth microdilution, anaerobic 37°C, 12~18 h
# C. perfringens CVCC 1137 [16] = conditions: CVCC 1137; broth microdilution, anaerobic 37°C, 12~18 h
# [17] = CVCC 46, 2×MIC, 1×10^5 CFU/mL, 37°C, colony counts
# [18] = CVCC 46, broth microdilution, 1×10^5 CFU/mL, anaerobic 37°C, 12~18 h, triplicate
# [19] = CVCC 46, broth microdilution, anaerobic 37°C, 12~18 h, triplicate
# [20] = JT1, broth microdilution, anaerobic 37°C, 12~18 h
# [21] = JZ10, broth microdilution, anaerobic 37°C, 12~18 h
# [22] = JC2, broth microdilution, anaerobic 37°C, 12~18 h
compound,measurement,setting,value
CC[C@H](C)[C@@H]1NC(=O)[C@H](CO)NC(=O)[C@H](CCCCN)NC(=O)[C@@H]2CSSC[C@@H](C(=O)N[C@@H](Cc3ccc(O)cc3)C(=O)O)NC(=O)[C@H](CCCCN)NC(=O)[C@@H]3CSSC[C@H](NC(=O)[C@H](CCC(N)=O)NC(=O)[C@H](CCSC)NC(=O)[C@H](CC(=O)O)NC(=O)[C@H](CC(=O)O)NC(=O)[C@H](CCC(=O)O)NC(=O)[C@H](CC(=O)O)NC(=O)[C@H](Cc4c[nH]c5ccccc45)NC(=O)[C@@H]4CCCN4C(=O)CNC(=O)[C@H](CC(N)=O)NC(=O)[C@@H](NC(=O)CNC(=O)[C@H](Cc4ccccc4)NC(=O)CN)CSSC[C@H](NC(=O)[C@H](Cc4ccc(O)cc4)NC(=O)CNC(=O)CNC(=O)[C@H](CCCCN)NC(=O)[C@H](Cc4ccc(O)cc4)NC(=O)CNC(=O)[C@H](CCCCN)NC1=O)C(=O)N[C@@H](C)C(=O)N[C@@H](CCCCN)C(=O)NCC(=O)NCC(=O)N[C@@H](Cc1ccccc1)C(=O)N[C@@H](C(C)C)C(=O)N3)C(=O)N[C@@H](Cc1c[nH]cn1)C(=O)N[C@@H](CC(N)=O)C(=O)N[C@@H](Cc1c[nH]cn1)C(=O)N2 [Plectasin],MBC,"C. perfringens CVCC 46 [1]; CVCC 46, 18 h",1.81 µM
same,MIC,"C. perfringens CVCC 46 [1]; CVCC 46, 18 h",1.81 µM
same,MIC,"C. perfringens JT1 [2]; JT1, 18 h",0.23 µM
same,MIC,"C. perfringens JZ10 [3]; JZ10, 18 h",>14.5 µM
same,MIC,"C. perfringens JC2 [4]; JC2, 18 h",>14.5 µM
same,Hemolysis / cytotoxicity,[5],non-hemolytic or non-cytotoxic
CN[C@H](CC(C)C)C(=O)N[C@H]1C(=O)N[C@@H](CC(N)=O)C(=O)N[C@H]2C(=O)N[C@H]3C(=O)N[C@H](C(=O)N[C@H](C(=O)O)c4cc(O)cc(O)c4-c4cc3ccc4O)[C@H](O)c3ccc(c(Cl)c3)Oc3cc2cc(c3O[C@@H]2O[C@H](CO)[C@@H](O)[C@H](O)[C@H]2O[C@H]2C[C@](C)(N)[C@H](O)[C@H](C)O2)Oc2ccc(cc2Cl)[C@H]1O [Vancomycin],Time to 99.9% reduction of bacterial counts,C. perfringens CVCC 46 [6],8 h
same,FIC,C. perfringens CVCC 46 [7],0.5
same,MICC (MIC of drug used in combination),C. perfringens CVCC 46 [7],0.345 µM
same,MBC,C. perfringens CVCC 46 [8],0.69 µM
same,MIC,C. perfringens CVCC 46 [8],0.69 µM
same,MIC,C. perfringens CVCC 51 [9],0.69 µM
same,MIC,C. perfringens CVCC 1137 [10],0.69 µM
same,MIC,C. perfringens JT1 [11],0.69 µM
same,MIC,C. perfringens JZ10 [12],22.1 µM
same,MIC,C. perfringens JC2 [13],22.1 µM
same,MIC,C. perfringens CVCC 46 [14],0.69 µM
Bacitracin zinc,Time to 99.9% reduction of bacterial counts,C. perfringens CVCC 46 [6]; [17],8 h
same,MIC,C. perfringens CVCC 46 [1]; [18],0.67 µM
same,MBC,C. perfringens CVCC 46 [1]; [19],1.34 µM
same,MIC,C. perfringens CVCC 51 [15],1.35 µM
same,MIC,C. perfringens CVCC 1137 [16],1.35 µM
same,MIC,C. perfringens JT1 [2]; [20],0.67 µM
same,MIC,C. perfringens JZ10 [3]; [21],>86.1 µM
same,MIC,C. perfringens JC2 [4]; [22],>86.1 µM
same,MICa (MIC of drug used alone),C. perfringens CVCC 46 [7]; CVCC 46,0.67 µM
same,FIC,"C. perfringens CVCC 46 [7]; combination Bacitracin zinc-MP1102, MIC in combination / MIC alone",0.5
same,FIC,"C. perfringens CVCC 46 [7]; combination Bacitracin zinc-NZ2114, MIC in combination / MIC alone",0.25
Virginiamycin,Time to 99.9% reduction of bacterial counts,C. perfringens CVCC 46 [6]; [17],2~4 h
same,MIC,C. perfringens CVCC 46 [1]; [18],0.96 µM
same,MBC,C. perfringens CVCC 46 [1]; [19],0.96 µM
same,MIC,C. perfringens CVCC 51 [15],0.24 µM
same,MIC,C. perfringens CVCC 1137 [16],0.48 µM
same,MIC,C. perfringens JT1 [2]; [20],0.46 µM
same,MIC,C. perfringens JZ10 [3]; [21],121.8 µM
same,MIC,C. perfringens JC2 [4]; [22],60.9 µM
same,MICa (MIC of drug used alone),C. perfringens CVCC 46 [7]; CVCC 46,0.96 µM
same,MICC (MIC of drug used in combination),"C. perfringens CVCC 46 [7]; combination Virginiamycin-MP1102, CVCC 46",0.12 µM
same,FIC,"C. perfringens CVCC 46 [7]; combination Virginiamycin-MP1102, MIC in combination / MIC alone",0.125
same,MICC (MIC of drug used in combination),"C. perfringens CVCC 46 [7]; combination Virginiamycin-NZ2114, CVCC 46",0.48 µM
same,FIC,"C. perfringens CVCC 46 [7]; combination Virginiamycin-NZ2114, MIC in combination / MIC alone",0.5
